Here are results for 2 substances from publication PMC4073510, “Identification of natural antimicrobial agents to treat dengue infection: In vitro analysis of latarcin peptide activity against dengue virus” (BMC Microbiology, 2014).

Like-named read-outs stand apart in the source and are kept apart here. No end group written: not given here.

In data set [1] the target is T1, dengue NS2B-NS3pro (DENV2 serine protease, recombinant single chain NS2B (G4-T-G4) NS3pro) (Dengue virus type 2, UniProt P14340).
T1 construct: 1394–1440 in DENV2 polyprotein; 1476–1660 in DENV2 polyprotein; made in house; host or cells: E. coli
Put plainly: Dengue NS2B-NS3 protease (NS2B-NS3pro) assay. Format: biochemical, Dengue virus serotype-2 (DENV2). The following applies: 2 μM NS2B-NS3pro, 100 μM Boc-Gly-Arg-Arg-AMC, pH 8.5, 200 mM Tris-HCl, 30 min pre-incubation + 30 min with substrate, fluorescence ex 350/em 440 nm, triplicate, repeated twice, ± SD, read-out: IC50 (inhibitory concentration of 50% of enzyme activity). As to the method: The NS2B-NS3pro assay was performed to examine whether the Ltc 1 peptide inhibits the DENV2 serine protease. Briefly, a single chain NS2B (G4-T-G4) NS3pro was produced as a recombinant protein in E. coli as previously described. The end point reaction mixture was performed in black 96-well plates, which contained 2 μM recombinant NS2B-NS3pro, 100 μM fluorogenic peptide substrate (Boc-Gly-Arg-Arg-AMC) and varying concentrations of the Ltc 1 peptide (0.1 to 40 μM) buffered at pH 8.5 with 200 mM Tris-HCl in a total volume of 200 μl. The reaction mixtures without peptide, substrate with the peptides, enzyme and different concentrations of the peptides were used as controls. […] Measurements were performed in triplicate using a Tecan Infinite M200 Pro fluorescence spectrophotometer (Tecan Group Ltd., Switzerland). […] The fluorescence values obtained with the no-inhibitor control (0.0 μM peptide) were set at 100%, and those in the presence of peptide were calculated as a percentage of the control using non-linear regression in GraphPad Prism (version 5.01) software. The IC50 was calculated from nonlinear regression fitting of the signal vs. concentration data points to the standard dose–response equation Y = Bottom + (Top - Bottom)/(1 + 10^^((X - LogIC50))). […] The inhibition percentage was calculated using the following formula: […]

Another data set relates to Vero cells. Put plainly: Cytotoxicity, Non-Radioactive Cell Proliferation assay. Format: cell-based. The following applies: Vero cells (method), 72 h. As to the method:
The cytotoxicity of the Ltc 1 peptides was evaluated by determining the maximal non-toxic dose (MNTD) and the 50% cytotoxic concentration (CC50) of the cells using the Non-Radioactive Cell Proliferation assay (Promega, USA) according to the manufacturer’s instructions. […] Vero cells were seeded at 1×10^4 cells/well in triplicate under optimal conditions (37°C, 5% CO2 in a humidified incubator) in 96-well plates with blank controls (media only) and cell controls (cells only). After an overnight incubation, the cells were treated with increasing concentrations of Ltc 1 peptide (0, 4, 8, 16, 32, 64 and 120 μM) with DMEM medium supplemented with 2% FBS and the cell culture was analysed after 72 h. The percentage of cell viability was calculated as follows: […] (absorbance of treated cells/absorbance of untreated cells) × 100. The MNTD and CC50 values were calculated from the dose-response curves.

The next data set relates to HepG2 cells. Put plainly: Real Time Cell Proliferation Assay (RTCA, xCELLigence). Format: cell-based, human. As to the method: This assay was performed to test the real time effects of the Ltc 1 peptide on cell viability. Cell proliferation was measured using the xCELLigence Real-Time Cellular Analysis (RTCA) system (Roche, Germany) as described previously. Cell viability and growth were monitored continuously after applying increasing concentrations of the Ltc 1 peptide (0, 12.5, 25, 50, 100, 150, 200, 250 μM). Briefly, the background measurements were recorded after adding 100 μl culture medium to the wells. Next, the cells were seeded at a density of 1 × 10^4 cell/well in a 16-well plate with electrodes for 18 h to allow the cells to grow to log phase. The cells were treated with different concentrations of peptide dissolved in cell culture medium and continuously monitored for up to 100 h. The cell sensor impedance was expressed as an arbitrary unit named the cell index. The cell index was recorded every 5 minutes using a RTCA analyser. To eliminate variation between the wells, the cell index values were normalised to the value at the beginning of the treatment.

The subject of a further data set is DENV2. Put plainly: Dose-response assay, viral RNA by one-step qRT-PCR. Format: cell-based, Dengue virus serotype-2 (DENV2). The following applies: HepG2 infected with DENV2, MOI 2, peptide 0-80 μM added after infection, quadruplicate experiments, ± SD. As to the method: This assay was performed to evaluate the 50% effective concentration (EC50) of the Ltc 1 peptide against DENV2. HepG2 cells were grown in six-well microplates (1.5 × 10^6 cells/well) for 24 h in quadruplicate experiments. The cell culture media were removed and the cells were washed three times with PBS. Then, fresh medium containing the virus supernatant was added at MOI of 2, followed by incubation for 1 h with gentle shaking every 15 min. The viral residues were removed by washing with PBS, and serial dilutions of the Ltc 1 peptide (0, 2.5, 5, 10, 20, 40, 80 μM) were added. […] The cell supernatants were collected and stored at -80°C for viral load determination using viral RNA and were quantified using one step qReal time-PCR.
The DENV2 copy number was quantified in the culture supernatants using one-step quantitative real-time PCR. Known copies of the viral RNA were 10-fold serially diluted to generate a standard curve. The viral RNA was extracted using the QIAmp viral RNAmini kit (QIAGEN, Germany), and the qRT-PCR was performed using a SYBR Green Master Kit (Qiagen, Germany). Triplicate reactions were performed for each sample, and a no template control was included as a negative control. Absolute quantification was performed using an ABI7500 machine (Applied Biosystems, Foster City, CA). The results were analysed using Sequence Detection Software Version 1.3 (Applied Biosystems, Foster City, CA). The percentage of viral inhibition (%) was calculated as follows: 100 – (viral copy number of treated cells/viral copy number of untreated cells) × 100.
Background: Real-time PCR tracks product formation cycle by cycle.

The conditions of data set [2]: cited from earlier work. The source says: Natural antimicrobial peptides (AMPs) are produced in the majority of living organisms as protection against various pathogens, including viruses. […] Therefore, the objective of this study was to identify and characterise the inhibitory potential of the latarcin peptide (Ltc 1, […]) against dengue virus replication in human cells. Ltc 1 is one of approximately seven latarcin peptides, which are produced in the venom gland of Lachesana tarab ...

Another data set deals with mammalian cells. The following applies: cited from earlier work.
Data set [3] has as its system dengue protease NS2B-NS3pro. Particulars: compared to the other standard serine protease inhibitors; cited from earlier work. From the text: Previous studies reported various inhibitors against dengue protease, including standard serine protease inhibitors, substrate based inhibitors, and non-substrate based inhibitors.

T1 sequence (P14340 1476-1660): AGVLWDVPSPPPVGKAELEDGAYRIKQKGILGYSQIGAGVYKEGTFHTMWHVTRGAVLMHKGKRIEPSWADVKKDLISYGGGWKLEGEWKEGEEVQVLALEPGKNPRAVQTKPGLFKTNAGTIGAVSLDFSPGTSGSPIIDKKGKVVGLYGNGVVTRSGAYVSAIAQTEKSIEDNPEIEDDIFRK
T1 sequence (P14340 1394-1440): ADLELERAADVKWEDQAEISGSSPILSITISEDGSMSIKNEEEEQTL

As a reminder, the cell viability is a read-out of living cells in per cent, often relative to untreated cells. As a reminder, the EC50 is the concentration giving half of the maximal effect. A higher EC50 goes with a need for much substance. For the substance SMWSGMWRRKLKKLRNALKKKLKGE [Ltc 1], the IC50 in data set [1] (37°C) amounted to 12.7 ± 3.2 µM; in data set [1] (40°C (high fever-like)), 6.58 ± 4.1 µM. Moreover, the cell viability in the data set on Vero cells (25 μM peptide) is recorded as 80%. Further, the “CC50 (50% cytotoxic concentration)” value in the data set on Vero cells (0-120 μM peptide, DMEM 2% FBS, 37°C, triplicate, ± SD) is given as “approximately 52.51 ± 3.6 μM”. The “effect on cell proliferation” value is given as “insignificant” in the data set on HepG2 cells (25 μM, 110 h, cell index similar to untreated control cells); “significantly decreased” with HepG2 cells (50 μM, after 66 h of incubation, HepG2 cells); “toxic to the cells” in the data set on HepG2 cells (concentrations higher than 50 μM, all time-points). Moreover, the “maximal non-toxic dose (MNTD)” value in the data set on HepG2 cells (HepG2 cells, real-time cell index, concentrations 0-250 μM) was 25 µM. The 50% effective concentration (EC50) came out at 8.3 ± 1.2 µM in the data set on DENV2 (24 h), 7.6 ± 2.7 µM in the data set on DENV2 (48 h) and 6.8 ± 2.5 µM with DENV2 (72 h). Further, the haemolytic activity entry in data set [2] was “moderate haemolytic activity”. Further, in the data set with mammalian cells, the “induction of cell apoptosis” value is on record as “induces cellular changes that lead to cell apoptosis”.
Consider aprotinin, for which the “inhibitory effect against the dengue protease” value in data set [3] is on record as “picomolar levels”.
